Test results from patent publication US20240116985A1, “STAPLED PEPTIDES AND METHODS THEREOF” (priority 2020, published 2024).
≈ marks a conversion by molar mass, not a printed value. Like-named read-outs stand apart in the source and are kept apart here.

Key:
CHI Log D procedure = assay type: physicochemical; conditions: for CHI Log D: pH 7.4
Solubility in PBS = assay type: physicochemical
Procedure, shortened: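 HPLC quantitation of peptide remaining in the PBS supernatant after ultracentrifugation, referenced to a 50 μM solution in DMSO.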

[1] = target: T1, full-length beta-Catenin (Uniprot ID P35222) (Homo sapiens, UniProt P35222); assay: Fluorescence polarization IC50 (beta-catenin / 5FAM-TCF4 10-53 competition); assay type: binding
T1 construct: 10 nM full-length beta-Catenin (Uniprot ID P35222)
T1 sequence (P35222 1-781): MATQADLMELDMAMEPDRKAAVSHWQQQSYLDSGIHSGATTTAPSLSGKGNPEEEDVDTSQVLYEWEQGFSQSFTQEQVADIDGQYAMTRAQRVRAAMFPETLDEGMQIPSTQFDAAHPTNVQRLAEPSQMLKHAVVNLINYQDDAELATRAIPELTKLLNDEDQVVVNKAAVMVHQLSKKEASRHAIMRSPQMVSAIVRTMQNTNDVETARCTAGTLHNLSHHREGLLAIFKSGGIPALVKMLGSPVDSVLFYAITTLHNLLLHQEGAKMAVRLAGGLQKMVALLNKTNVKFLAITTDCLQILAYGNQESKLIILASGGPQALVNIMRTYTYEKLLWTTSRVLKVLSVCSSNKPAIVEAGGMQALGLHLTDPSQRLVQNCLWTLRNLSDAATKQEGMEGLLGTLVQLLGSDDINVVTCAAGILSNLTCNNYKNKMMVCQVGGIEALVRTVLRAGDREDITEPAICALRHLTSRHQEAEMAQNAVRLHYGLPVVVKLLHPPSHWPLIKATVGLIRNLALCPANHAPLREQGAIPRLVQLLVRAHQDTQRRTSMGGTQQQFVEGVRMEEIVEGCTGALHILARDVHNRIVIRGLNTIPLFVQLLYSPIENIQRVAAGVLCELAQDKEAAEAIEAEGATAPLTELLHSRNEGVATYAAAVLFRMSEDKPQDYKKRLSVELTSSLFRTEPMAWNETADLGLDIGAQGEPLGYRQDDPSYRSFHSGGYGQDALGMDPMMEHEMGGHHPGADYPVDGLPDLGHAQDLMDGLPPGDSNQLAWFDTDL

[2] = fluorescence polarization, beta-catenin, read-out: FP EC50
[3] = fluorescence polarization, read-out: beta-Catenin FP IC50

Row | SMILES | CHI Log D (CHI Log D procedure) | Solubility (Solubility in PBS) | IC50 ([1]; read-out: FP EC50) | IC50 ([1]; read-out: beta-Catenin FP IC50) | IC50 [1, 2] | IC50 [1, 3] | chromatographic logD (CHI Log D procedure; pH 7.4, CHI Log D)
1 | CC(=O)N1CCC[C@]12CC=CCCCC1(CCCC=CCCCCCC[C@@](C)(C(=O)N[C@@H](Cc3ccccc3)C(=O)N[C@@H](Cc3csc4ccccc34)C(=O)N[C@@H](C(N)=O)[C@H](C)O)NC(=O)[C@H](CC(N)=O)NC(=O)[C@H](Cc3ccccc3)NC(=O)[C@H](C)NC(=O)[C@H](C)NC(=O)[C@H](CCC(=O)O)NC(=O)[C@H](CC(=O)O)NC1=O)NC(=O)[C@H](CC(C)C)NC(=O)[C@H](CC(=O)O)NC2=O (stereo partly drawn) [I-755, Ac-PL3-Asp-Leu-B5-Asp-Glu-Ala-Ala-Phe-Asn-S8-Phe-BztA-dThr-NH2] | 2.684 | 47 µM (≈ 86.6 µg/mL) | 88 nM | 88 nM |  |  | 
2 | CC(=O)N1CCC[C@]12CC=CCCCC1(CCCC=CCCCCCC[C@@](C)(C(=O)N[C@@H](Cc3ccccc3)C(=O)N[C@@H](Cc3csc4ccccc34)C(=O)N[C@@H](CCC(N)=O)C(N)=O)NC(=O)[C@H](C(C)C)NC(=O)[C@H](Cc3cccc(F)c3F)NC(=O)[C@H](C)NC(=O)[C@H](C)NC(=O)[C@H](CCC(=O)O)NC(=O)[C@H](CC(=O)O)NC1=O)NC(=O)[C@H](C)NC(=O)[C@H](CC(=O)O)NC2=O (stereo partly drawn) [I-390, Ac-PL3-Asp-Ala-B5-Asp-Glu-Ala-Ala-23FF-Val-S8-Phe-BztA-Gln-NH2] | 2.587 | 10 µM (≈ 18.5 µg/mL) |  |  | 3420 nM | 3420 nM | 
3 | CC(=O)N1CCC[C@]12CC=CCCCC1(CCCC=CCCCOC(=O)N3CC[C@@](C(=O)N[C@@H](Cc4ccsc4)C(=O)N[C@@H](Cc4csc5ccccc45)C(=O)N[C@@H](CO)C(N)=O)(C3)NC(=O)[C@H](CC(C)C)NC(=O)[C@H](Cc3ccccc3)NC(=O)[C@H](C)NC(=O)[C@H](C)NC(=O)[C@H](CN(CC(=O)O)CC(F)(F)F)NC(=O)[C@H](CC(=O)O)NC1=O)NC(=O)[C@H](CC(C)(C)C)NC(=O)[C@H](CC(=O)O)NC2=O (stereo partly drawn) [I-961, Ac-PL3-Asp-Npg-B5-Asp-TfeGA-Ala-Ala-Phe-Leu-PyrS2-3Thi-BztA-Ser-NH2] | 2.123 | 10 µM (≈ 19.9 µg/mL) |  | 357 nM | 357 nM |  | 
4 | CC(=O)N1CCC[C@]12CC=CCCCC1(CCCC=CCCCCCC[C@@](C)(C(=O)N[C@@H](Cc3ccccc3)C(=O)N[C@@H](Cc3csc4ccccc34)C(=O)N[C@@H](CCC(N)=O)C(N)=O)NC(=O)[C@H](C(C)C)NC(=O)[C@H](Cc3ccccc3)NC(=O)[C@H](C)NC(=O)[C@H](C)NC(=O)[C@H](CC(=O)O)NC(=O)[C@H](CC(=O)NC3CCC3)NC1=O)NC(=O)[C@H](C)NC(=O)[C@H](CC(=O)O)NC2=O (stereo partly drawn) [I-539, Ac-PL3-Asp-Ala-B5-[NHCyBu]AsnR-Asp-Ala-Ala-Phe-Val-S8-Phe-BztA-Gln-NH2] |  | 10 µM (≈ 18.5 µg/mL) |  |  |  | 5000 nM | 2.94
5 | CC(=O)N1CCC[C@]12CC=CCCCC1(CCCC=CCCCCCC[C@@](C)(C(=O)N[C@@H](Cc3ccsc3)C(=O)N[C@@H](Cc3csc4ccccc34)C(N)=O)NC(=O)[C@H](CC(N)=O)NC(=O)[C@H](Cc3ccccc3)NC(=O)[C@H](C)NC(=O)[C@H](C)NC(=O)[C@H](CCC(=O)O)NC(=O)[C@H](CC(=O)O)NC1=O)NC(=O)[C@H](CC(C)C)NC(=O)[C@H](CC(=O)O)NC2=O (stereo partly drawn) [I-717, Ac-PL3-Asp-Leu-B5-Asp-Glu-Ala-Ala-Phe-Asn-S8-3Thi-BztA-NH2] | 2.694 | 35 µM (≈ 61.1 µg/mL) | 39 nM |  |  | 39 nM | 
6 | CC[C@H](C)[C@@H]1NC(=O)[C@H](CC(=O)O)NC(=O)[C@]2(CC=CCCCC3(CCCC=CCCCCCC[C@@](C)(C(=O)N[C@@H](Cc4ccccc4)C(=O)N[C@@H](Cc4csc5ccccc45)C(=O)N[C@@H](CCC(N)=O)C(N)=O)NC(=O)[C@H](CCC(N)=O)NC(=O)[C@H](Cc4ccccc4)NC(=O)[C@H](C)NC(=O)[C@H](CO)NC(=O)[C@H](CCC(=O)O)NC(=O)[C@H](CC(=O)O)NC3=O)NC1=O)CCCN2C(C)=O (stereo partly drawn) [I-652, Ac-PL3-Asp-Ile-B5-Asp-Glu-Ser-Ala-Phe-Gln-S8-Phe-BztA-Gln-NH2] | 2.233 | 48 µM (≈ 91.2 µg/mL) | 72 nM |  |  | 72 nM | 
